Measured values published in article PMC6345968, “Structural basis for species-selective targeting of Hsp90 in a pathogenic fungus” (Nature Communications, 2019).
Like-named read-outs stand apart in the source and are kept apart here.

Columns and labels:
[1] = target: T1, Hsp90 in C. albicans (SC5314) lysate (Candida albicans, UniProt P46598); assay: biochemical; assay type: binding; conditions: for Ratio re. GdA: EC50 relative to GdA; for FP signal: raw
T1 construct: endogenous in cells; host or cells: C. albicans SC5314 whole-cell lysate

Hsp90 in HEPG2 lysate = conditions: for FP signal (raw) / FP signal / EC50: HepG2 lysate; for FP signal: raw; for EC50: oxime panel experiment 220817
[2] = SC5314 lysate, 0.457 nM compound
[3] = SC5314 lysate, 1.372 nM compound
[4] = SC5314 lysate, 4.115 nM compound
[5] = SC5314 lysate, 12.346 nM compound
[6] = SC5314 lysate, 37.037 nM compound
[7] = SC5314 lysate, 111.111 nM compound
[8] = SC5314 lysate, 333.333 nM compound
[9] = SC5314 lysate, 1000 nM compound
[10] = SC5314 lysate, 3000 nM compound
[11] = ratio of GdA-normalized EC50s, human over fungal lysate
[12] = ratio of GdA-relative EC50 ratios, HepG2 over SC5314
[13] = EC50 / EC50 of GdA in HepG2 lysate
[14] = EC50 relative to GdA, HEPG2 lysate
[15] = HEPG2 lysate, log concentration 0.137354 (1.372 nM)
[16] = HEPG2 lysate, log concentration 0.61437 (4.115 nM)
[17] = HEPG2 lysate, log concentration 1.09153 (12.346 nM)
[18] = HEPG2 lysate, log concentration 1.56864 (37.037 nM)
[19] = HEPG2 lysate, log concentration 2.04576 (111.111 nM)
[20] = HEPG2 lysate, log concentration 2.52288 (333.333 nM)
[21] = HEPG2 lysate, log concentration 3 (1000 nM)
[22] = HEPG2 lysate, log concentration 3.47712 (3000 nM)
[23] = HEPG2 lysate, log concentration -0.340084 (0.457 nM)

T1 sequence (P46598 whole entry): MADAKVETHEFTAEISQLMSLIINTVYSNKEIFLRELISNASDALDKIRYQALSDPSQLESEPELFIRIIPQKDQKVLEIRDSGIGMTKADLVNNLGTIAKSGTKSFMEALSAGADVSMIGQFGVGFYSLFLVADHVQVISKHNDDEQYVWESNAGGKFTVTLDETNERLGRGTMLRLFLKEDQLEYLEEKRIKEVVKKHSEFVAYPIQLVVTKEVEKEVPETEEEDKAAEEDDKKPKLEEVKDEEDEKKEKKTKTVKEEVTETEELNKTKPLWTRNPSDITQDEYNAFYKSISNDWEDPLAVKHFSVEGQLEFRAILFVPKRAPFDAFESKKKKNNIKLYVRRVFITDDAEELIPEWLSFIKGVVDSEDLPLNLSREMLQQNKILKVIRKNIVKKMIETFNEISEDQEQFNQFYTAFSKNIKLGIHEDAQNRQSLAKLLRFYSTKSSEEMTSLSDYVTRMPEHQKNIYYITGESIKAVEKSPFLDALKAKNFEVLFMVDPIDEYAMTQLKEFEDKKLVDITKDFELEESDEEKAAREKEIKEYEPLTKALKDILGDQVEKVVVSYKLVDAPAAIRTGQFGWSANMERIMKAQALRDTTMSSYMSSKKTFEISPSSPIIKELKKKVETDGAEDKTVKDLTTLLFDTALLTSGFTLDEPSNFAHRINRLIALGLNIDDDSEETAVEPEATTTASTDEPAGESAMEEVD

`Cc1ccc(CON=C2C=CC=CC3OC3CC(C)OC(=O)c3c(O)cc(O)c(Cl)c3C2)cc1` (mixture of isomers) [compound 218] was tested, and the “Ratio re. GdA” value ([1]; SC5314 lysate) was 57.1252, the “FP signal (raw)” value ([1]; SC5314 lysate, 0.457 nM) was 202 and the “FP signal relative to 0 nM” value [1, 2] was 0.9806. For the same molecule, the FP signal [1, 2] was 202, the “FP signal (raw)” value ([1]; SC5314 lysate, 1.372 nM) was 199 and the “FP signal relative to 0 nM” value [1, 3] was 0.966. The FP signal [1, 3] was 199, the “FP signal (raw)” value ([1]; SC5314 lysate, 4.115 nM) was 200 and the “FP signal relative to 0 nM” value [1, 4] was 0.9709. The FP signal [1, 4] was 200, the “FP signal (raw)” value ([1]; SC5314 lysate, 12.346 nM) was 199 and the “FP signal relative to 0 nM” value [1, 5] was 0.966. The FP signal [1, 5] was 199, the “FP signal (raw)” value ([1]; SC5314 lysate, 37.037 nM) was 200 and the “FP signal relative to 0 nM” value [1, 6] was 0.9709. For the same molecule, the FP signal [1, 6] was 200, the “FP signal (raw)” value ([1]; SC5314 lysate, 111.111 nM) was 197 and the “FP signal relative to 0 nM” value [1, 7] was 0.9563. The FP signal [1, 7] was 197, the “FP signal (raw)” value ([1]; SC5314 lysate, 333.333 nM) was 171 and the “FP signal relative to 0 nM” value [1, 8] was 0.8301. The FP signal [1, 8] was 171, the “FP signal (raw)” value ([1]; SC5314 lysate, 1000 nM) was 108 and the “FP signal relative to 0 nM” value [1, 9] was 0.5243. For the same molecule, the FP signal [1, 9] was 108, the “FP signal (raw)” value ([1]; SC5314 lysate, 3000 nM) was 45 and the “FP signal relative to 0 nM” value [1, 10] was 0.2184. The FP signal [1, 10] was 45, the HepG2/SC5314 [1, 11] was 1.973 and the HepG2/SC5314 [1, 12] was 1.973. For the same molecule, the “Ratio rel. GdA (HepG2)” value (Hsp90 in HEPG2 lysate; [13]) was 112.714, the “Ratio rel. GdA (HepG2)” value (Hsp90 in HEPG2 lysate; [14]) was 112.714 and the “FP signal, Fxn Control” value (Hsp90 in HEPG2 lysate; [15]) was 0.9811. The “FP signal, Fxn Control” value (Hsp90 in HEPG2 lysate; [16]) was 0.9953, the “FP signal, Fxn Control” value (Hsp90 in HEPG2 lysate; [17]) was 0.9858 and the “FP signal, Fxn Control” value (Hsp90 in HEPG2 lysate; [18]) was 0.9906. For the same molecule, the “FP signal, Fxn Control” value (Hsp90 in HEPG2 lysate; [19]) was 0.9811, the “FP signal, Fxn Control” value (Hsp90 in HEPG2 lysate; [20]) was 0.9575 and the “FP signal, Fxn Control” value (Hsp90 in HEPG2 lysate; [21]) was 0.8066. The “FP signal, Fxn Control” value (Hsp90 in HEPG2 lysate; [22]) was 0.4009, the “FP signal, Fxn Control” value (Hsp90 in HEPG2 lysate; [23]) was 0.9906 and the “FP signal (raw)” value (Hsp90 in HEPG2 lysate; 0.457 nM) was 210. For the same molecule, the FP signal (Hsp90 in HEPG2 lysate; 0.457 nM compound) was 210, the “FP signal (raw)” value (Hsp90 in HEPG2 lysate; 1.372 nM) was 208 and the FP signal (Hsp90 in HEPG2 lysate; 1.372 nM compound) was 208. The “FP signal (raw)” value (Hsp90 in HEPG2 lysate; 4.115 nM) was 211, the FP signal (Hsp90 in HEPG2 lysate; 4.115 nM compound) was 211 and the “FP signal (raw)” value (Hsp90 in HEPG2 lysate; 12.346 nM) was 209. The FP signal (Hsp90 in HEPG2 lysate; 12.346 nM compound) was 209, the “FP signal (raw)” value (Hsp90 in HEPG2 lysate; 37.037 nM) was 210 and the FP signal (Hsp90 in HEPG2 lysate; 37.037 nM compound) was 210. For the same molecule, the “FP signal (raw)” value (Hsp90 in HEPG2 lysate; 111.111 nM) was 208, the FP signal (Hsp90 in HEPG2 lysate; 111.111 nM compound) was 208 and the “FP signal (raw)” value (Hsp90 in HEPG2 lysate; 333.333 nM) was 203. For the same molecule, the FP signal (Hsp90 in HEPG2 lysate; 333.333 nM compound) was 203, the “FP signal (raw)” value (Hsp90 in HEPG2 lysate; 1000 nM) was 171 and the FP signal (Hsp90 in HEPG2 lysate; 1000 nM compound) was 171. The “FP signal (raw)” value (Hsp90 in HEPG2 lysate; 3000 nM) was 85, the FP signal (Hsp90 in HEPG2 lysate; 3000 nM compound) was 85 and the EC50 (Hsp90 in HEPG2 lysate) was 2500 nM.
With `CCON=C1/C=C/C=C\[C@H]2O[C@H]2C[C@@H](C)OC(=O)c2c(O)cc(O)c(Cl)c2C1` [compound 333] the “Ratio re. GdA” value ([1]; SC5314 lysate) was 0.3152, the “FP signal (raw)” value ([1]; SC5314 lysate, 0.457 nM) was 168 and the “FP signal relative to 0 nM” value [1, 2] was 0.8317. For the same molecule, the FP signal [1, 2] was 168, the “FP signal (raw)” value ([1]; SC5314 lysate, 1.372 nM) was 155 and the “FP signal relative to 0 nM” value [1, 3] was 0.7673. For the same molecule, the FP signal [1, 3] was 155, the “FP signal (raw)” value ([1]; SC5314 lysate, 4.115 nM) was 114 and the “FP signal relative to 0 nM” value [1, 4] was 0.5644. The FP signal [1, 4] was 114, the “FP signal (raw)” value ([1]; SC5314 lysate, 12.346 nM) was 81 and the “FP signal relative to 0 nM” value [1, 5] was 0.401. For the same molecule, the FP signal [1, 5] was 81, the “FP signal (raw)” value ([1]; SC5314 lysate, 37.037 nM) was 58 and the “FP signal relative to 0 nM” value [1, 6] was 0.2871. The FP signal [1, 6] was 58, the “FP signal (raw)” value ([1]; SC5314 lysate, 111.111 nM) was 39 and the “FP signal relative to 0 nM” value [1, 7] was 0.1931. The FP signal [1, 7] was 39, the “FP signal (raw)” value ([1]; SC5314 lysate, 333.333 nM) was 35 and the “FP signal relative to 0 nM” value [1, 8] was 0.1733. The FP signal [1, 8] was 35, the “FP signal (raw)” value ([1]; SC5314 lysate, 1000 nM) was 36 and the “FP signal relative to 0 nM” value [1, 9] was 0.1782. For the same molecule, the FP signal [1, 9] was 36, the “FP signal (raw)” value ([1]; SC5314 lysate, 3000 nM) was 35 and the “FP signal relative to 0 nM” value [1, 10] was 0.1733. It also gave an FP signal [1, 10] of 35, an EC50 ([1]; SC5314 lysate, not normalized, oxime panel experiment 220817, read-out: EC50) of 5.36 nM and a HepG2/SC5314 [1, 11] of 1.134. The HepG2/SC5314 [1, 12] was 1.134, the “Ratio rel. GdA (HepG2)” value (Hsp90 in HEPG2 lysate; [13]) was 0.3573 and the “Ratio rel. GdA (HepG2)” value (Hsp90 in HEPG2 lysate; [14]) was 0.3573. The “FP signal, Fxn Control” value (Hsp90 in HEPG2 lysate; [15]) was 0.9198, the “FP signal, Fxn Control” value (Hsp90 in HEPG2 lysate; [16]) was 0.7075 and the “FP signal, Fxn Control” value (Hsp90 in HEPG2 lysate; [17]) was 0.5047. The “FP signal, Fxn Control” value (Hsp90 in HEPG2 lysate; [18]) was 0.3066, the “FP signal, Fxn Control” value (Hsp90 in HEPG2 lysate; [19]) was 0.2075 and the “FP signal, Fxn Control” value (Hsp90 in HEPG2 lysate; [20]) was 0.1651. The “FP signal, Fxn Control” value (Hsp90 in HEPG2 lysate; [21]) was 0.184, the “FP signal, Fxn Control” value (Hsp90 in HEPG2 lysate; [22]) was 0.2028 and the “FP signal, Fxn Control” value (Hsp90 in HEPG2 lysate; [23]) was 0.9575. For the same molecule, the “FP signal (raw)” value (Hsp90 in HEPG2 lysate; 0.457 nM) was 203, the FP signal (Hsp90 in HEPG2 lysate; 0.457 nM compound) was 203 and the “FP signal (raw)” value (Hsp90 in HEPG2 lysate; 1.372 nM) was 195. For the same molecule, the FP signal (Hsp90 in HEPG2 lysate; 1.372 nM compound) was 195, the “FP signal (raw)” value (Hsp90 in HEPG2 lysate; 4.115 nM) was 150 and the FP signal (Hsp90 in HEPG2 lysate; 4.115 nM compound) was 150. For the same molecule, the “FP signal (raw)” value (Hsp90 in HEPG2 lysate; 12.346 nM) was 107, the FP signal (Hsp90 in HEPG2 lysate; 12.346 nM compound) was 107 and the “FP signal (raw)” value (Hsp90 in HEPG2 lysate; 37.037 nM) was 65. For the same molecule, the FP signal (Hsp90 in HEPG2 lysate; 37.037 nM compound) was 65, the “FP signal (raw)” value (Hsp90 in HEPG2 lysate; 111.111 nM) was 44 and the FP signal (Hsp90 in HEPG2 lysate; 111.111 nM compound) was 44. For the same molecule, the “FP signal (raw)” value (Hsp90 in HEPG2 lysate; 333.333 nM) was 35, the FP signal (Hsp90 in HEPG2 lysate; 333.333 nM compound) was 35 and the “FP signal (raw)” value (Hsp90 in HEPG2 lysate; 1000 nM) was 39. The FP signal (Hsp90 in HEPG2 lysate; 1000 nM compound) was 39, the “FP signal (raw)” value (Hsp90 in HEPG2 lysate; 3000 nM) was 43 and the FP signal (Hsp90 in HEPG2 lysate; 3000 nM compound) was 43. For the same molecule, the EC50 (Hsp90 in HEPG2 lysate) was 7.93 nM.
